Consider 39 compounds from patent US20260042769A1, “TRIARYL AGONISTS OF ALPHA-2 ADRENERGIC RECEPTORS” (ALCEPTOR THERAPEUTICS, INC., priority 2023, published 2026).

The target of the experiment is T1, human ADRA2B receptor (Homo sapiens, UniProt P18089).
T1 construct: expressed in transfected cells
T1 sequence (P18089 1-450): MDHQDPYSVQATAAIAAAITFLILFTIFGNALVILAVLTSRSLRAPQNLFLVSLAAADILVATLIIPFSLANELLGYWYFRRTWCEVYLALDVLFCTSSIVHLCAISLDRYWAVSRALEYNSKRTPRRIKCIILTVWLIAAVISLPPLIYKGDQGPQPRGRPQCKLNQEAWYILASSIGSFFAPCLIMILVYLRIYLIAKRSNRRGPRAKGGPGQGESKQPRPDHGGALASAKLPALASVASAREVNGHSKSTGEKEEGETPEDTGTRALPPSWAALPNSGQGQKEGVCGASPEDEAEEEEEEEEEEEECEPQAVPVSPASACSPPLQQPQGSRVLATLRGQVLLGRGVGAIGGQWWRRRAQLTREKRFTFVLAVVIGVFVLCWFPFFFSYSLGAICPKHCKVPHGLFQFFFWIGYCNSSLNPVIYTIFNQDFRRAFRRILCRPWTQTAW
As to the kind of experiment: ADRA2B arrestin agonist assay. The class given is cell-based. To be noted: read-out: Beta-Arrestin - Human Alpha2B EC50. The method, then:
ADRA2A and ADRA2B Arrestin Agonist Assay Method
The arrestin assay uses frozen CHO-K1 cell lines stably expressing human ADRA2A and ADRA2B receptors. Cells are frozen following normal cell freezing protocols. Briefly, cells are washed with PBS and then dissociated with 0.25% trypsin. Dissociated cells are quenched in full media and then collected by centrifugation at 290×g for 5 minutes. […] Cells are stored at −80° C. (or in liquid N2 if stored >6 months) until the day of the assay.
On the day before the assay, frozen cells are thawed in a 37° C. water bath, brought up in 20 mL of full media, and collected via centrifugation at 290×g for 5 minutes. […] Cells are incubated overnight in a 37° C., 5% CO2 cell incubator.
On the day of the assay, agonists are diluted in Opti-MEM to 3.5x of the final assay concentration. 4 μL of agonists are added to the cells and incubated for 2 hours at 37° C. in a 5% CO2 cell incubator. 6 μL of arrestin detection reagents are dispensed onto the cells and the plates are incubated for 2 hours at room temperature. […] Plates are read on an Envision luminescence plate reader.

The mark [1] stands for this setting: CHO-K1 cells stably expressing human ADRA2B.

As a reminder, the EC50 is the concentration giving half of the maximal effect.

Read-outs that look alike come from different tables or passages of the source.

`Cc1cccc(C(Cc2ccnc(COC3CC3)n2)c2c[nH]cn2)c1C` (stereo not drawn) [Compound 208, 2-(cyclopropoxymethyl)-4-[2-(4-imidazolyl) 2-(2,3-xylyl)ethyl]pyrimidine]: the EC50 under setting [1] is under 10 nM. Same read-out and setting: for `COC(C)(C)c1nccc(CC(c2c[nH]cn2)c2cccc(C)c2C)n1` (stereo not drawn) [Compound 209, 4-[2-(4-imidazolyl)-2-(2,3-xylyl)ethyl]-2-(1-methoxy-1-methylethyl)pyrimidine] the value was under 10 nM; for `Cc1cccc(C(Cc2ccnc(C3COC3)n2)c2c[nH]cn2)c1C` (stereo not drawn) [Compound 210, 4-[2-(4-imidazolyl)-2-(2,3-xylyl)ethyl]-2-(3-oxetanyl)pyrimidine], under 10 nM; for `Cc1cccc([C@H](Cc2ccnc(C(C)(C)O)n2)c2c[nH]cn2)c1C` [Compound 211, 2-{4-[(S)-2-(4-imidazolyl)-2-(2,3-xylyl)ethyl]-2-pyrimidinyl}-2-propanol], over 500 nM.

Consider `Cc1cccc([C@@H](Cc2ccnc(C(C)(C)O)n2)c2c[nH]cn2)c1C` [Compound 212, 2-{4-[(R)-2-(4-imidazolyl)-2-(2,3-xylyl)ethyl]-2-pyrimidinyl}-2-propanol], for which the EC50 under setting [1] was under 10 nM.

On to `Cc1cccc([C@@H](Cc2cn[nH]c2)c2c[nH]cn2)c1C` [Compound 232, 4-[(R)-2-(4-imidazolyl)-2-(2,3-xylyl)ethyl]pyrazole], for which the concentration giving a half-maximal response (EC50) under setting [1] was over 500 nM. In the case of `Cc1cccc([C@H](Cc2cn[nH]c2)c2c[nH]cn2)c1C` [Compound 233, 4-[(S)-2-(4-imidazolyl)-2-(2,3-xylyl)ethyl]pyrazole], the EC50 is under 10 nM. `Cc1cccc([C@@H](Cc2cc[nH]n2)c2c[nH]cn2)c1C` [Compound 234, 3-[(R)-2-(4-imidazolyl)-2-(2,3-xylyl)ethyl]pyrazole]: under setting [1], the half-maximal effective concentration (EC50) is over 500 nM. On the same count and under the same terms, to `Cc1cccc([C@H](Cc2cc[nH]n2)c2c[nH]cn2)c1C` [Compound 235, 3-[(S)-2-(4-imidazolyl)-2-(2,3-xylyl)ethyl]pyrazole] belongs under 10 nM; to `Cc1cccc(C(Cc2cc[nH]n2)c2c[nH]cn2)c1F` (stereo not drawn) [Compound 236, 3-[2-(2-fluoro-3-tolyl)-2-(4-imidazolyl)ethyl]pyrazole], 50 to 500 nM. Still for that read-out and setting: to `c1cc2c(c([C@@H](Cc3cc[nH]n3)c3c[nH]cn3)c1)OCC2` [Compound 237, 3-[(R)-2-(2,3-dihydro-1-benzofuran-7-yl)-2-(4-imidazolyl)ethyl]pyrazole] belongs over 500 nM; to `c1cc2c(c([C@H](Cc3cc[nH]n3)c3c[nH]cn3)c1)OCC2` [Compound 238, 3-[(S)-2-(2,3-dihydro-1-benzofuran-7-yl)-2-(4-imidazolyl)ethyl]pyrazole], 10 to 50 nM.

As to `Cc1cccc([C@@H](Cc2cn(C)nn2)c2c[nH]cn2)c1C` [Compound 239, 4-[(R)-2-(4-imidazolyl)-2-(2,3-xylyl)ethyl]-1-methyl-1H-1,2,3-triazole], under setting [1], the 50% effective concentration (EC50) is over 500 nM. The same measure, in the same setting: to `Cc1cccc([C@H](Cc2cn(C)nn2)c2c[nH]cn2)c1C` [Compound 240, 4-[(S)-2-(4-imidazolyl)-2-(2,3-xylyl)ethyl]-1-methyl-1H-1,2,3-triazole] belongs under 10 nM. As to `COc1c(C)cccc1C(Cc1cc[nH]n1)c1c[nH]cn1` (stereo not drawn) [Compound 242, 3-[2-(4-imidazolyl)-2-(2-methoxy-3-tolyl)ethyl]pyrazole], under setting [1], the EC50 is over 500 nM. Same read-out and setting: for `Cc1nc(CC(c2c[nH]cn2)c2cccc(C)c2C)no1` (stereo not drawn) [Compound 243, 3-[2-(4-imidazolyl)-2-(2,3-xylyl)ethyl]-5-methyl-1,2,4-oxadiazole-formic acid (1/1)] the value was 50 to 500 nM; for `Cc1cccc(C(Cc2ccns2)c2c[nH]cn2)c1C` (stereo not drawn) [Compound 244, 5-[2-(4-imidazolyl)-2-(2,3-xylyl)ethyl]isothiazole], under 10 nM; for `Cc1cccc(C(Cc2ccsn2)c2c[nH]cn2)c1C` (stereo not drawn) [Compound 245, 3-[2-(4-imidazolyl)-2-(2,3-xylyl)ethyl]isothiazole], under 10 nM. For the compound `Cc1cccc([C@@H](Cc2ccnn2C)c2c[nH]cn2)c1F` [Compound 246, 5-[(R)-2-(2-fluoro-3-tolyl)-2-(4-imidazolyl)ethyl]-1-methylpyrazole], under setting [1], the EC50 fell in the range of 50 to 500 nM. Still for that read-out and setting: for `Cc1cccc([C@H](Cc2ccnn2C)c2c[nH]cn2)c1F` [Compound 247, 5-[(S)-2-(2-fluoro-3-tolyl)-2-(4-imidazolyl)ethyl]-1-methylpyrazole] the value was 50 to 500 nM; for `Cc1cccc(C(Cc2ncns2)c2c[nH]cn2)c1C` (stereo not drawn) [Compound 248, 5-[2-(4-imidazolyl)-2-(2,3-xylyl)ethyl]-1,2,4-thiadiazole], under 10 nM; for `Cc1cccc([C@@H](Cc2cn(C)nn2)c2c[nH]cn2)c1F` [Compound 249, 4-[(R)-2-(2-fluoro-3-tolyl)-2-(4-imidazolyl)ethyl]-1-methyl-1H-1,2,3-triazole], under 10 nM.

With `Cc1cccc([C@H](Cc2cn(C)nn2)c2c[nH]cn2)c1F` [Compound 250, 4-[(S)-2-(2-fluoro-3-tolyl)-2-(4-imidazolyl)ethyl]-1-methyl-1H-1,2,3-triazole], under setting [1], the concentration for a half-maximal effect (EC50) was over 500 nM. On the same count and under the same terms, for `Fc1c(Cl)cccc1C(Cc1cc[nH]n1)c1c[nH]cn1` (stereo not drawn) [Compound 251, 3-[2-(3-chloro-2-fluorophenyl)-2-(4-imidazolyl)ethyl]py-razole] the value was 50 to 500 nM. The same measure, in the same setting: to `c1ccc(C[C@@H](c2c[nH]cn2)c2cccc3c2OCC3)nc1` [Compound 252, 4-[(R)-1-(2,3-dihydro-1-benzofuran-7-yl)-2-(2-pyridyl)ethyl]imida-] belongs 10 to 50 nM. For `Cn1ccc2cccc(C(Cc3cc[nH]n3)c3c[nH]cn3)c21` (stereo not drawn) [Compound 253, 3-[2-(4-imidazolyl)-2-(1-methyl-7-indolyl)ethyl]pyrazole], under setting [1], the EC50 was over 500 nM. Turning to `Cc1cccc(C(Cc2cccnc2C)c2c[nH]cn2)c1C` (stereo not drawn) [Compound 254, 4-[2-(2-methyl-3-pyridyl)-1-(2,3-xylyl)ethyl]imidazole], the half-maximal effective concentration (EC50) under setting [1] lay in the range of 10 to 50 nM.

Turning to `Cc1cc(CC(c2c[nH]cn2)c2cccc(C)c2C)ccn1` (stereo not drawn) [Compound 255, 4-[2-(2-methyl-4-pyridyl)-1-(2,3-xylyl)ethyl]imidazole], the EC50 under setting [1] was under 10 nM. In the case of `Cc1cccc(C(Cc2cncnc2C)c2c[nH]cn2)c1C` (stereo not drawn) [Compound 256, 5-[2-(4-imidazolyl)-2-(2,3-xylyl)ethyl]-4-methylpyrimidine], the EC50 under setting [1] was 50 to 500 nM. The same measure, in the same setting: to `Cc1cc(CC(c2c[nH]cn2)c2cccc(C)c2C)ncn1` (stereo not drawn) [Compound 257, 4-[2-(4-imidazolyl)-2-(2,3-xylyl)ethyl]-6-methylpyrimidine] belongs over 500 nM; to `Cn1cc(CC(c2c[nH]cn2)c2cccc3c2OCC3)nn1` (stereo not drawn) [Compound 258, 4-[2-(2,3-dihydro-1-benzofuran-7-yl)-2-(4-imidazolyl)ethyl] 1-methyl-1H-1,2,3-triazole], 10 to 50 nM. For the compound `Cc1cccc(CC(c2c[nH]cn2)c2cccc(C)c2F)n1` (stereo not drawn) [Compound 259, 4-[1-(2-fluoro-3-tolyl)-2-(6-methyl-2-pyridyl)ethyl]imida-zole], the concentration for a half-maximal effect (EC50) under setting [1] fell in the range of 10 to 50 nM. Same read-out and setting: to `COc1c(C)cccc1C(Cc1cn(C)nn1)c1c[nH]cn1` (stereo not drawn) [Compound 260, 4-[2-(4-imidazolyl)-2-(2-methoxy-3-tolyl)ethyl]-1-methyl-1H-1,2,3-triazole] belongs 50 to 500 nM.

For the compound `Cc1cccc([C@H](Cc2ccn(CF)n2)c2c[nH]cn2)c1C` [Compound 261, 3-[(S)-2-(4-imidazolyl)-2-(2,3-xylyl)ethyl]-1-(fluoromethyl)pyra-zole], the half-maximal effective concentration (EC50) under setting [1] is under 10 nM. Same read-out and setting: for `Cc1cccc([C@H](Cc2ccnn2CF)c2c[nH]cn2)c1C` [Compound 262, 5-[(S)-2-(4-imidazolyl)-2-(2,3-xylyl)ethyl]-1-(fluoromethyl)pyra-zole] the value was 10 to 50 nM; for `Cc1nnc(CC(c2c[nH]cn2)c2cccc(C)c2C)s1` (stereo not drawn) [Compound 263, 2-[2-(4-imidazolyl)-2-(2,3-xylyl)ethyl]-5-methyl-1,3,4-thiadiazole], 50 to 500 nM. On to `Cc1nsc(CC(c2c[nH]cn2)c2cccc(C)c2C)n1` (stereo not drawn) [Compound 264, 5-[2-(4-imidazolyl)-2-(2,3-xylyl)ethyl]-3-methyl-1,2,4-thiadiazole], for which the half-maximal effective concentration (EC50) under setting [1] lay in the range of 50 to 500 nM. With `Cc1cccc(C[C@@H](c2c[nH]cn2)c2cccc3c2OCC3)n1` [Compound 265, 4-[(R)-1-(2,3-dihydro-1-benzofuran-7-yl)-2-(6-methyl-2-pyridyl)ethyl]imida-zole], the EC50 under setting [1] fell in the range of 10 to 50 nM. Same read-out and setting: for `Cc1cccc(C[C@H](c2c[nH]cn2)c2cccc3c2OCC3)n1` [Compound 266, 4-[(S)-1-(2,3-dihydro-1-benzofuran-7-yl)-2-(6-methyl-2-pyridyl)ethyl]imida-] the value was over 500 nM.
